Data reported in article PMC10791743, “Selective CK1α degraders exert antiproliferative activity against a broad range of human cancer cell lines” (Nature Communications, 2024).
Values joined by “and” are separate entries in the source; they are usually repeats but may differ in a detail not shown here. Equal entries are not always repeated. Where two headings read alike, the source gives them in different places.

What was measured:
[1] = Pharmacokinetics in female CD1 mice; format: in vivo, mouse; conditions: mouse; for half-life: CD1, mouse, plasma
Method: Three mice were housed in each cage. […] Temperature and humidity were recorded by an auto-controlled data logger system. All the animals were provided a laboratory rodent diet (Altromin, Germany). Reverse osmosis water treated with ultraviolet light was provided ad libitum. Total 27 mice (n = 9/group) were divided into three groups as Group 1, Group 2, and Group 3 with a sparse sampling design (3 mice/time points). […] The formulation vehicle for IV was 5% v/v NMP, 5% v/v Solutol HS-15 and 90% v/v Normal saline, and for PO & IP was 10%v/v NMP, 10%v/v Solutol HS-15. 50%v/v PEG-400 and 30%v/v HPβCD (20%w/v) in saline. […] Immediately after blood collection, plasma was harvested by centrifugation at 12,300×g, 10 min at 4 °C and samples were stored at −70 ± 10 °C until bioanalysis. Concentrations of SJ3149 in mouse plasma samples were determined by fit-for-purpose LC–MS/MS method. Non-Compartmental-Analysis tool of Phoenix WinNonlin® (Version 8.3) was used to assess the pharmacokinetic parameters. Peak plasma concentration (Cmax) and time for the peak plasma concentration (Tmax) were the observed values. The area under the concentration–time curve (AUClast) was calculated by the linear trapezoidal rule. The terminal elimination rate constant, ke was determined by regression analysis of the linear terminal portion of the log plasma concentration-time curve. Clearance was estimated as Dose/AUCinf and Vss as CL*MRT.

CK1α G40N = target: T1, CK1α G40N (Homo sapiens, UniProt P48729, G40N); assay: Immunoblot of transduced MOLM-13 cells (FLAG-CK1α WT / G40N); format: cell-based; conditions: 1 μM, 4 h
T1 construct: host or cells: MOLM-13, lentiviral transduction, puromycin selected
Method: To evaluate the contribution of the CK1α degradation in SJ3149-mediated cytotoxicity, we utilized the degradation-resistant mutant CK1α G40N[41]. MOLM-13 cells were transduced with lentivirus to overexpress FLAG-tagged wild type CK1α or the G40N mutant, which removes the essential glycine in the CK1α degron G-loop.
Frozen pellets of ~1 million cells were lysed in 150 µl of SDS lysis buffer (60 mM Tris/HCl pH 7, 10% glycerol, 2% SDS, 5% beta-mercaptoethanol, 0.02% bromophenol blue, 0.5% protease and phosphatase inhibitor cocktail (Sigma Aldrich)). When cells were resuspended, samples were heated for 3 min at 99 °C then put on ice. Samples were then fragmented by sonication for 10 0.5-s pulses (550 Sonic Dismembrator, Fisher Scientific) and heated again at 99 °C for 2 min. 15 μl of each sample was added to the wells of a 4–20% polyacrylamide gel (Bio-Rad). A mixture of 2 μl of Precision Plus Protein Unstained Standards and 2 μl of Precision Plus Protein All Blue Standards (Bio-Rad) was used for the size marker. After electrophoresis, gels were transferred to nitrocellulose membrane using the Bio-Rad Trans-Blot Turbo system on the mixed molecular weight setting. […] Blots were imaged with the Li-Cor Odyssey CLx and analyzed using Image Studio Version 5.2. […]

IKZF2 = target: T2, IKZF2 (Homo sapiens, UniProt Q96SW2+Q9UKS7); assay: IKZF2 immunoblotting in MOLM-13 cells; format: cell-based
T2 construct: endogenous in cells; host or cells: MOLM-13
Method: We further tested the specificity of SJ3149 considering that previously reported CK1α degraders also lead to degradation of IKZF2[26]. Even though there was a negligible change in IKZF2 protein level in our proteomics studies, we sought to confirm this observation by immunoblotting. In a similar experiment to those shown in Fig. 2b, MOLM-13 cells were treated with SJ3149 for 4 h at increasing concentrations ranging from 1 nM to 10 µM and analyzed by immunoblotting to quantify IKZF2 and CK1α proteins. While at 4 nM concentration SJ3149 induced 50% degradation of CK1α protein, IKZF2 levels were reduced by only ~40% at the highest dose (10 μM), confirming the selectivity of SJ3149 for CK1α over IKZF2 (Supplementary Fig. 6d). These collective data support the claim that CK1α degradation is responsible for the observed cellular phenotypes induced by SJ3149 treatment.
Frozen pellets of ~1 million cells were lysed in 150 µl of SDS lysis buffer (60 mM Tris/HCl pH 7, 10% glycerol, 2% SDS, 5% beta-mercaptoethanol, 0.02% bromophenol blue, 0.5% protease and phosphatase inhibitor cocktail (Sigma Aldrich)). When cells were resuspended, samples were heated for 3 min at 99 °C then put on ice. Samples were then fragmented by sonication for 10 0.5-s pulses (550 Sonic Dismembrator, Fisher Scientific) and heated again at 99 °C for 2 min. 15 μl of each sample was added to the wells of a 4–20% polyacrylamide gel (Bio-Rad). A mixture of 2 μl of Precision Plus Protein Unstained Standards and 2 μl of Precision Plus Protein All Blue Standards (Bio-Rad) was used for the size marker. After electrophoresis, gels were transferred to nitrocellulose membrane using the Bio-Rad Trans-Blot Turbo system on the mixed molecular weight setting. Membranes were blocked for 1 h in Li-Cor Intercept Blocking Buffer then probed overnight at 4 °C with primary antibody, at 1:1000 dilution or 1:2000 dilution for actin, in Li-Cor Intercept Antibody Diluent. The following morning, membranes were washed three times for 5 min with TBS + 0.05% Tween-20, probed with fluorescent secondary antibodies (goat anti-rabbit IRDye 800CW and goat anti-mouse IRDye 680RD, Li-Cor) for 1 h at room temperature in the dark at 1:10,000 dilution, and washed again 3 times. Blots were imaged with the Li-Cor Odyssey CLx and analyzed using Image Studio Version 5.2.
Primary antibodies used: rabbit anti-CK1α, ab206652, clone EPR19824, Abcam rabbit anti-p21, 2947S, clone 12D1, Cell Signaling Technology rabbit anti-Helios (IKZF2), 42427, clone D8W4X, Cell Signaling Technology mouse anti-beta actin, 3700S, clone 8H10D10, Cell Signaling Technology

[2] = female, CD1, plasma, IP 50 mg/kg
[3] = female, CD1, plasma, IV 3 mg/kg
[4] = female, CD1, plasma, PO 50 mg/kg
[5] = western blot quantification, relative to DMSO

T2 sequence (Q9UKS7 whole entry): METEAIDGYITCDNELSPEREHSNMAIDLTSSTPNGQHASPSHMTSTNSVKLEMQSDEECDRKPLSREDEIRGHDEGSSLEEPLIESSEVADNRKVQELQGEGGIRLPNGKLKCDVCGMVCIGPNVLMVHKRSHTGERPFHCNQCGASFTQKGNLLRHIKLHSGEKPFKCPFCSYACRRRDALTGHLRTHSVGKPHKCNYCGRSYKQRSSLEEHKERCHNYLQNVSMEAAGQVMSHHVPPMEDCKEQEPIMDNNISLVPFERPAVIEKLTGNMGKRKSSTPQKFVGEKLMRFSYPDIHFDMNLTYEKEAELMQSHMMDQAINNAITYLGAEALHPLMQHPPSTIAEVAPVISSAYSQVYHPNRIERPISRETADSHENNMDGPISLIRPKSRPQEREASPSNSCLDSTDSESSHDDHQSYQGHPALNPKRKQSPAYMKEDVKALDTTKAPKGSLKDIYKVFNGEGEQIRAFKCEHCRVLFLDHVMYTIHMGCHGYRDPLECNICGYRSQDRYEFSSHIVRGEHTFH
T2 sequence (Q96SW2 whole entry): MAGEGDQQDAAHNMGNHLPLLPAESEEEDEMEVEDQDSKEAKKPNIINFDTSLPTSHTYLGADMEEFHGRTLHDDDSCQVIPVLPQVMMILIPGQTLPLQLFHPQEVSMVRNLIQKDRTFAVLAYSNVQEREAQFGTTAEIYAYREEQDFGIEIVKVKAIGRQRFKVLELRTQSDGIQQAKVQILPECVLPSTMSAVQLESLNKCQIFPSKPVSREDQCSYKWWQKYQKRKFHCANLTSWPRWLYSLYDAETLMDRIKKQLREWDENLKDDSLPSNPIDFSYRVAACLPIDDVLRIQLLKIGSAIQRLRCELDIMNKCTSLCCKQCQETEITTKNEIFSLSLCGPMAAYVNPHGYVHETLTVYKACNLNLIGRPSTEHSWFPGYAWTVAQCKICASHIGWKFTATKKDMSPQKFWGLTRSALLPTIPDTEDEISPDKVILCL
T2 sequence (Q16531 whole entry partner): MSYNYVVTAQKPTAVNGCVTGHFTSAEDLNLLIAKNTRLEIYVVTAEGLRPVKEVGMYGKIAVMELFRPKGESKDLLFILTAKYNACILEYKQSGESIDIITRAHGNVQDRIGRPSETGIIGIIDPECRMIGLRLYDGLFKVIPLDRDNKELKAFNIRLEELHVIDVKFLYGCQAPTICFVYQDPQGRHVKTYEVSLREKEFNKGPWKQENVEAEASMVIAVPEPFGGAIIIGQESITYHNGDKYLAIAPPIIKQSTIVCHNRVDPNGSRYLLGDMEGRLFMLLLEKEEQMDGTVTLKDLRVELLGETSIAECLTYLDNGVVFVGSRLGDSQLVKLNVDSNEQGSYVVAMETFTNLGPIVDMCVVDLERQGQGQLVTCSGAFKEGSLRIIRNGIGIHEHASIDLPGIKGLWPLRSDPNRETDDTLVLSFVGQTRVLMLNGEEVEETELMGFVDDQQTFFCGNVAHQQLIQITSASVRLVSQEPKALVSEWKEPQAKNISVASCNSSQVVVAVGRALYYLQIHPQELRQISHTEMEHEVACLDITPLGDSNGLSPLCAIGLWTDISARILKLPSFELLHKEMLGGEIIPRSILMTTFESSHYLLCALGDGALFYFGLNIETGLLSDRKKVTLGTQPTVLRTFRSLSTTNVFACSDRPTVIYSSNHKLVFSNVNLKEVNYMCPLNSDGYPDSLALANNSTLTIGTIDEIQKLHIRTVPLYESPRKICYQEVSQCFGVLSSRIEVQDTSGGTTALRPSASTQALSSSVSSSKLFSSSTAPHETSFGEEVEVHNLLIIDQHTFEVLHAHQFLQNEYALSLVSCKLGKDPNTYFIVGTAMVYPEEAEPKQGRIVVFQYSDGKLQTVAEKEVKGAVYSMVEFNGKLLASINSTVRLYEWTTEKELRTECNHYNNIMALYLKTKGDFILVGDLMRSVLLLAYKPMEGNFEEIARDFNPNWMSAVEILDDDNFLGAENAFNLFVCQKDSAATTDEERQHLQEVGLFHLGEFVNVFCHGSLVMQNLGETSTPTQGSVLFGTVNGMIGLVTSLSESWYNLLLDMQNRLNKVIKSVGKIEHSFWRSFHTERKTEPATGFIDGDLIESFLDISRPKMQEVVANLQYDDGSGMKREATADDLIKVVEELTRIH
T1 sequence (Q96SW2 whole entry partner): as the sequence (Q96SW2 whole entry) above
T1 sequence (Q16531 whole entry partner): as the sequence (Q16531 whole entry partner) above
T1 sequence (P48729 whole entry G40N): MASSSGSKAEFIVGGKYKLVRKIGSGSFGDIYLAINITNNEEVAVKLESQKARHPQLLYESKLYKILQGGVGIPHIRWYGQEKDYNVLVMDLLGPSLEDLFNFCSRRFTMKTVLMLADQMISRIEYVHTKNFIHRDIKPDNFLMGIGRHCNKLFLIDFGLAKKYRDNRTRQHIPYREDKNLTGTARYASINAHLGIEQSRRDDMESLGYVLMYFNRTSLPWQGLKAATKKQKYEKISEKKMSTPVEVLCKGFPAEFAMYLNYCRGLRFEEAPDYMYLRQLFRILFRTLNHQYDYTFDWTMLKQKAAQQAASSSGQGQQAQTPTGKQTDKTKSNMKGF

Q: With `O=C1CCC(N2Cc3cc(Nc4noc5ccccc45)ccc3C2=O)C(=O)N1` (centres unmarked) [SJ3149] as the molecule, how does the T1/2 ([1]; PO 50 mg/kg, 50 mg/kg) read?
A: 154 min

Q: What about the half-life ([1]; female, ip, 50 mg/kg, IP 50 mg/kg) of the same molecule?
A: 185 min

Q: And the half-life ([1]; female, iv, 3 mg/kg, IV 3 mg/kg)?
A: 46.2 min

Q: And the half-life ([1]; female, po, 50 mg/kg, PO 50 mg/kg)?
A: ~180 min

Q: What about the AUC(0-t) [1, 2] of the same molecule?
A: 17000 ng·h/mL

Q: And the Tmax [1, 2]?
A: 15 min

Q: And the bioavailability [1, 2]?
A: 74%

Q: And the Cmax ([1]; female, CD1, plasma, IP 50 mg/kg, read-out: C0/Cmax)?
A: 6680 ng/mL

Q: What about the AUC(0-t) [1, 3] of the same molecule?
A: 1370 ng·h/mL

Q: And the clearance [1, 3]?
A: 36.2 mL/min/kg

Q: And the Cmax ([1]; female, CD1, plasma, IV 3 mg/kg, read-out: C0/Cmax (C0 back extrapolated))?
A: 4510 ng/mL

Q: And the Vd ([1]; female, CD1, plasma, IV 3 mg/kg, read-out: Vss)?
A: 0.67 L/kg

Q: And the AUC(0-t) [1, 4]?
A: 2850 ng·h/mL

Q: What about the Tmax [1, 4] of the same molecule?
A: 15 min

Q: And the bioavailability [1, 4]?
A: 12%

Q: And the Cmax ([1]; female, CD1, plasma, PO 50 mg/kg, read-out: C0/Cmax)?
A: 4740 ng/mL

Q: What about the Cmax ([1]; female, CD1, plasma, PO 50 mg/kg, read-out: C0/Cmax (molar)) of the same molecule?
A: 12.6 µM

Q: What about the “Degradation of G40N mutant CK1α protein” value (CK1α G40N) of the same molecule?
A: resistance of the G40N mutant protein to SJ3149 mediated degradation

Q: What about the IKZF2 level reduction (IKZF2; MOLM-13, 10 μM, 4 h) of the same molecule?
A: ~ 40%

Q: What about the “IKZF2 western blot quantification” value (IKZF2; SJ3149 0.001 uM, relative to DMSO) of the same molecule?
A: 1.093 and 0.9655 and 0.8978

Q: What about the “IKZF2 western blot quantification” value (IKZF2; SJ3149 0.01 uM, relative to DMSO) of the same molecule?
A: 0.8205 and 1.143 and 0.8035

Q: What about the “IKZF2 western blot quantification” value (IKZF2; SJ3149 0.1 uM, relative to DMSO) of the same molecule?
A: 0.5925 and 0.7587 and 0.8297

Q: And the “IKZF2 western blot quantification” value (IKZF2; SJ3149 1 uM, relative to DMSO)?
A: 0.5412 and 0.7758 and 0.64

Q: What about the “IKZF2 western blot quantification” value (IKZF2; SJ3149 10 uM, relative to DMSO) of the same molecule?
A: 0.4999 and 0.6664 and 0.6326

Q: And the “Bottom (sigmoidal 4PL fit) of IKZF2 protein level” value (IKZF2; [5])?
A: 0.61

Q: What about the “Top (sigmoidal 4PL fit) of IKZF2 protein level” value (IKZF2; [5]) of the same molecule?
A: 1.002
